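48-hour exposure; five concentrations; linearly interpolated endpoints. GI50 marks 50% less growth.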 The source made the active and inactive calls. No stated cut-off is given here; in the data, active = GI50 up to about 1.1 µM and inactive = higher.
Tests used:
Assay in all cases: DTP human tumour cell line panel, 48 h
HCT-15 = test system: HCT-15
DLD-1 = test system: DLD-1
SK-MEL-5 = test system: SK-MEL-5
OVCAR-5 = test system: OVCAR-5
MOLT-4 = test system: MOLT-4
A549 = test system: A549
SF-268 = test system: SF-268
CCRF-CEM = test system: CCRF-CEM
HL-60 = test system: HL-60
SK-MEL-28 = test system: SK-MEL-28
COLO 205 = test system: COLO 205
XF498 = test system: XF498
M19-MEL = test system: M19-MEL
HCC 2998 = test system: HCC 2998
SN12C = test system: SN12C
OVCAR-4 = test system: OVCAR-4
NCI-H23 = test system: NCI-H23
SNB-78 = test system: SNB-78
NCI-H226 = test system: NCI-H226
RXF 393 = test system: RXF 393
Malme-3M = test system: Malme-3M
SW-620 = test system: SW-620
OVCAR-3 = test system: OVCAR-3
HCT-116 = test system: HCT-116
786-0 = test system: 786-0
SK-MEL-2 = test system: SK-MEL-2
K562 = test system: K562
EKVX = test system: EKVX
RPMI-8226 = test system: RPMI-8226
LXFL 529 = test system: LXFL 529
A498 = test system: A498
HOP-92 = test system: HOP-92
U-251 = test system: U-251
DMS-273 = test system: DMS-273
HOP-62 = test system: HOP-62
LOX IMVI = test system: LOX IMVI
CAKI-1 = test system: CAKI-1
UACC-62 = test system: UACC-62
HOP-18 = test system: HOP-18
SNB-19 = test system: SNB-19
ACHN = test system: ACHN
DMS-114 = test system: DMS-114
KM-20L2 = test system: KM-20L2
TK-10 = test system: TK-10
M14 = test system: M14
SF-295 = test system: SF-295
UO-31 = test system: UO-31
HT-29 = test system: HT-29
SF-539 = test system: SF-539
SK-OV-3 = test system: SK-OV-3
NCI-H460 = test system: NCI-H460
SR = test system: SR
UACC-257 = test system: UACC-257
IGROV-1 = test system: IGROV-1
SNB-75 = test system: SNB-75
KM12 = test system: KM12
NCI-H522 = test system: NCI-H522
OVCAR-8 = test system: OVCAR-8
MCF7 = test system: MCF7
NCI/ADR-RES = test system: NCI/ADR-RES

For `COc1cccc(NC(=O)C(C)(C)C)c1SSc1c(NC(=O)C(C)(C)C)cccc1OC`, the GI50 (HCT-15) was 20 µM, the GI50 (DLD-1) was > 43.7 µM (inactive) and the GI50 (SK-MEL-5) was 44.1 µM (inactive). For the same compound, the GI50 (OVCAR-5) was 26.7 µM (inactive), the GI50 (MOLT-4) was 17.7 µM (inactive) and the GI50 (A549) was 44.9 µM (inactive). For the same compound, the GI50 (SF-268) was 18.1 µM (inactive), the GI50 (CCRF-CEM) was 17.1 µM (inactive) and the GI50 (HL-60) was 20.3 µM (inactive). For the same compound, the GI50 (SK-MEL-28) was 32.7 µM (inactive), the GI50 (COLO 205) was 26.9 µM (inactive) and the GI50 (XF498) was 15.2 µM (inactive). The GI50 (M19-MEL) was 35.2 µM (inactive), the GI50 (HCC 2998) was > 69.3 µM (inactive) and the GI50 (SN12C) was 24.2 µM (inactive). For the same compound, the GI50 (OVCAR-4) was 22.8 µM (inactive), the GI50 (NCI-H23) was 35 µM (inactive) and the GI50 (SNB-78) was 22.3 µM (inactive). For the same compound, the GI50 (NCI-H226) was > 53.8 µM (inactive), the GI50 (RXF 393) was 20.3 µM (inactive) and the GI50 (Malme-3M) was 33.7 µM (inactive). The GI50 (SW-620) was 18.2 µM (inactive), the GI50 (OVCAR-3) was 37.9 µM (inactive) and the GI50 (HCT-116) was 22.4 µM (inactive). For the same compound, the GI50 (786-0) was 21.6 µM (inactive), the GI50 (SK-MEL-2) was 48.3 µM (inactive) and the GI50 (K562) was 22.9 µM (inactive). The GI50 (EKVX) was 64.1 µM (inactive), the GI50 (RPMI-8226) was 5.78 µM (inactive) and the GI50 (LXFL 529) was 15.8 µM (inactive). For the same compound, the GI50 (A498) was > 100 µM (inactive), the GI50 (HOP-92) was 36.1 µM (inactive) and the GI50 (U-251) was 17.3 µM (inactive). For the same compound, the GI50 (DMS-273) was 96.8 µM (inactive), the GI50 (HOP-62) was > 100 µM (inactive) and the GI50 (LOX IMVI) was 15.4 µM (inactive). The GI50 (CAKI-1) was > 42.5 µM (inactive), the GI50 (UACC-62) was 19.3 µM (inactive) and the GI50 (HOP-18) was > 69.7 µM (inactive). The GI50 (SNB-19) was 59 µM (inactive), the GI50 (ACHN) was 33.5 µM (inactive) and the GI50 (DMS-114) was > 10 µM (inactive). The GI50 (KM-20L2) was 98.4 µM (inactive), the GI50 (TK-10) was > 100 µM (inactive) and the GI50 (M14) was 17.5 µM (inactive). For the same compound, the GI50 (SF-295) was 36.9 µM (inactive), the GI50 (UO-31) was 31.5 µM (inactive) and the GI50 (HT-29) was 27.3 µM (inactive). The GI50 (SF-539) was 20.8 µM (inactive), the GI50 (SK-OV-3) was > 83.4 µM (inactive) and the GI50 (NCI-H460) was 60.4 µM (inactive). The GI50 (SR) was 19.2 µM (inactive), the GI50 (UACC-257) was 22.7 µM (inactive) and the GI50 (IGROV-1) was > 81.1 µM (inactive). For the same compound, the GI50 (SNB-75) was 40.6 µM (inactive), the GI50 (KM12) was 26.9 µM (inactive) and the GI50 (NCI-H522) was 14.2 µM (inactive). For the same compound, the GI50 (OVCAR-8) was 19.3 µM (inactive).

In the case of `COc1cc([C@@H]2c3cc4c(c(O[C@@H]5O[C@H]6CO[C@@H](C)O[C@H]6[C@H](O)[C@@H]5O)c3C[C@H]3COC(=O)[C@@H]32)OCO4)cc(OC)c1O`, the GI50 (HCT-15) is reported as 14.6 µM, the GI50 (DLD-1) is reported as 27.7 µM (inactive) and the GI50 (SK-MEL-5) is reported as 5.08 µM (inactive). For the same compound, the GI50 (OVCAR-5) was 97.1 µM (inactive), the GI50 (MOLT-4) was 10.6 µM (inactive) and the GI50 (A549) was 10.9 µM (inactive). The GI50 (CCRF-CEM) was 11.9 µM (inactive), the GI50 (HL-60) was 4.41 µM (inactive) and the GI50 (SK-MEL-28) was 5.81 µM (inactive). The GI50 (COLO 205) was 38.8 µM (inactive), the GI50 (XF498) was 12.6 µM (inactive) and the GI50 (M19-MEL) was 20.5 µM (inactive). The GI50 (HCC 2998) was 26.9 µM (inactive), the GI50 (SN12C) was 12.6 µM (inactive) and the GI50 (OVCAR-4) was 9.16 µM (inactive). For the same compound, the GI50 (NCI-H23) was 15.1 µM (inactive), the GI50 (SNB-78) was 6.03 µM (inactive) and the GI50 (NCI-H226) was 3.75 µM (inactive). For the same compound, the GI50 (RXF 393) was 3.64 µM (inactive), the GI50 (Malme-3M) was > 29.9 µM (inactive) and the GI50 (SW-620) was 8.3 µM (inactive). The GI50 (MCF7) was 4.15 µM (inactive), the GI50 (OVCAR-3) was 6.76 µM (inactive) and the GI50 (HCT-116) was 6.78 µM (inactive). For the same compound, the GI50 (SK-MEL-2) was 27.3 µM (inactive), the GI50 (K562) was 4.53 µM (inactive) and the GI50 (EKVX) was 5.55 µM (inactive). For the same compound, the GI50 (RPMI-8226) was 47.5 µM (inactive), the GI50 (A498) was 4.11 µM (inactive) and the GI50 (HOP-92) was 25.7 µM (inactive). For the same compound, the GI50 (U-251) was 8.17 µM (inactive), the GI50 (DMS-273) was 4.63 µM (inactive) and the GI50 (HOP-62) was 27.2 µM (inactive). The GI50 (NCI/ADR-RES) was 4.02 µM (inactive), the GI50 (LOX IMVI) was 4.73 µM (inactive) and the GI50 (UACC-62) was 4.8 µM (inactive). For the same compound, the GI50 (HOP-18) was 11.7 µM (inactive), the GI50 (SNB-19) was 23.7 µM (inactive) and the GI50 (DMS-114) was 3.79 µM (inactive). The GI50 (KM-20L2) was 34.9 µM (inactive), the GI50 (SF-295) was 3.48 µM (inactive) and the GI50 (UO-31) was 45.6 µM (inactive). The GI50 (HT-29) was 33.7 µM (inactive), the GI50 (SF-539) was 2.81 µM (inactive) and the GI50 (SK-OV-3) was 19.6 µM (inactive). The GI50 (NCI-H460) was 12.1 µM (inactive), the GI50 (UACC-257) was 5.93 µM (inactive) and the GI50 (IGROV-1) was 8.61 µM (inactive). The GI50 (SNB-75) was 5.32 µM (inactive), the GI50 (KM12) was 8.75 µM (inactive) and the GI50 (NCI-H522) was 2.54 µM (inactive). For the same compound, the GI50 (OVCAR-8) was 6.64 µM (inactive).

For `COc1ccc(C2C(Cl)C(=O)N2NC(=O)Cc2ccccc2)cc1` (centres undefined), the GI50 (HCT-15) was greater than 100 µM, the GI50 (DLD-1) was > 100 µM (inactive) and the GI50 (SK-MEL-5) was > 100 µM (inactive). The GI50 (OVCAR-5) was > 100 µM (inactive), the GI50 (MOLT-4) was > 100 µM (inactive) and the GI50 (A549) was > 100 µM (inactive). The GI50 (SF-268) was > 100 µM (inactive), the GI50 (CCRF-CEM) was > 100 µM (inactive) and the GI50 (HL-60) was > 100 µM (inactive). The GI50 (SK-MEL-28) was > 100 µM (inactive), the GI50 (COLO 205) was > 100 µM (inactive) and the GI50 (XF498) was > 100 µM (inactive). The GI50 (M19-MEL) was > 100 µM (inactive), the GI50 (HCC 2998) was > 100 µM (inactive) and the GI50 (SN12C) was > 100 µM (inactive). For the same compound, the GI50 (OVCAR-4) was > 100 µM (inactive), the GI50 (NCI-H23) was > 100 µM (inactive) and the GI50 (SNB-78) was > 100 µM (inactive). The GI50 (NCI-H226) was > 100 µM (inactive), the GI50 (RXF 393) was > 100 µM (inactive) and the GI50 (Malme-3M) was > 100 µM (inactive). For the same compound, the GI50 (SW-620) was > 100 µM (inactive), the GI50 (OVCAR-3) was > 100 µM (inactive) and the GI50 (HCT-116) was > 100 µM (inactive). For the same compound, the GI50 (786-0) was > 100 µM (inactive), the GI50 (SK-MEL-2) was > 100 µM (inactive) and the GI50 (K562) was > 100 µM (inactive). For the same compound, the GI50 (EKVX) was > 100 µM (inactive), the GI50 (RPMI-8226) was > 100 µM (inactive) and the GI50 (LXFL 529) was > 100 µM (inactive). For the same compound, the GI50 (U-251) was > 100 µM (inactive), the GI50 (DMS-273) was > 100 µM (inactive) and the GI50 (HOP-62) was > 100 µM (inactive). For the same compound, the GI50 (LOX IMVI) was > 100 µM (inactive), the GI50 (CAKI-1) was > 100 µM (inactive) and the GI50 (UACC-62) was > 100 µM (inactive). The GI50 (HOP-18) was > 100 µM (inactive), the GI50 (SNB-19) was > 100 µM (inactive) and the GI50 (ACHN) was > 100 µM (inactive). The GI50 (KM-20L2) was > 100 µM (inactive), the GI50 (TK-10) was > 100 µM (inactive) and the GI50 (M14) was > 100 µM (inactive). For the same compound, the GI50 (SF-295) was > 100 µM (inactive), the GI50 (UO-31) was > 100 µM (inactive) and the GI50 (HT-29) was > 100 µM (inactive). For the same compound, the GI50 (SK-OV-3) was > 100 µM (inactive), the GI50 (NCI-H460) was > 100 µM (inactive) and the GI50 (SR) was > 100 µM (inactive). The GI50 (UACC-257) was > 100 µM (inactive), the GI50 (IGROV-1) was > 100 µM (inactive) and the GI50 (SNB-75) was > 100 µM (inactive). For the same compound, the GI50 (KM12) was > 100 µM (inactive), the GI50 (NCI-H522) was > 100 µM (inactive) and the GI50 (OVCAR-8) was > 100 µM (inactive).
